In ChEMBL document CHEMBL1201862, “PubChem BioAssay data set” (2004):
Activity calls are given as the source filed them.

Columns and labels:
HEK293 [1] = test: cells; details: Homo sapiens
Cytochrome P450 2C9 = Cytochrome P450 2C9 (Homo sapiens, UniProt P11712)
Cytochrome P450 2D6 = Cytochrome P450 2D6 (Homo sapiens, UniProt P10635);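 note: CYP2D6 member of a cytochrome P450 panel assay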
Protein Tat = target: T1, Protein Tat (Human immunodeficiency virus type 1 group M subtype B (isolate HXB2)(HIV-1), UniProt P04608); type: functional;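 note: tat binding to TAR RNA read out by fluorescence polarization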
T1 sequence (P04608 whole entry): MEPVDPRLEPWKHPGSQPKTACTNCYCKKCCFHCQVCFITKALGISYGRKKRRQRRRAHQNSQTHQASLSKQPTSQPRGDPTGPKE

A-375 = test: MITF: Counter assay: A375 proliferation Measured in Cell-Based System Using Plate Reader - 2084-03_Inhibitor_Dose_DryPowder_Activity. [Related pubchem assays (depositor defined):AID488944]; type: functional; details: Homo sapiens
[2] = THP-1 cell cytotoxicity, dose response, cytotoxicity control for Vif-APOBEC3G degradation inhibitor project, THP-1 cells (AID 1117359); type: functional; details: Human immunodeficiency virus 1, THP-1
[3] = target: T2, Microphthalmia-associated transcription factor (Homo sapiens, UniProt O75030); test: TRPM1 promoter luciferase signal decrease, dose response, MITF inhibitor project, cell-based, SK-MEL-5, cherry-picked, set 3 (AID 493073); type: functional
T2 sequence (O75030 whole entry): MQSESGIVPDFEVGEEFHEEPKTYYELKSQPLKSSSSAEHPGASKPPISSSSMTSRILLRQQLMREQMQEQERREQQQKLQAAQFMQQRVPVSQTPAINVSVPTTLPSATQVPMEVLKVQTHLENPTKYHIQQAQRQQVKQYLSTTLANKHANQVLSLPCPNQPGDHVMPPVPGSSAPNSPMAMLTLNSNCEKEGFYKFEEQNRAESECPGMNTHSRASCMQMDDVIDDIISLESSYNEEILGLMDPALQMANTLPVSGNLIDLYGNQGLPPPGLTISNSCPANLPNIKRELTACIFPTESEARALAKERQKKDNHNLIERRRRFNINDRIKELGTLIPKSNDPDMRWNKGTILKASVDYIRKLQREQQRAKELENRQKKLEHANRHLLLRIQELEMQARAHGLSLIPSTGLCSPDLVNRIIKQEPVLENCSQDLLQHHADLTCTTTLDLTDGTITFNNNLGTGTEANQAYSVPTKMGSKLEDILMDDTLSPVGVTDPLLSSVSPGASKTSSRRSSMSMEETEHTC

[4] = target: T3, Carboxy-terminal domain RNA polymerase II polypeptide A small phosphatase 1 (Homo sapiens, UniProt Q9GZU7); test: inhibitors of CTDSP1, concentration-response testing, biochemical assay, absorbance-based, actives from ultra-high-throughput screening (AID 540297); type: functional
T3 sequence (Q9GZU7 whole entry): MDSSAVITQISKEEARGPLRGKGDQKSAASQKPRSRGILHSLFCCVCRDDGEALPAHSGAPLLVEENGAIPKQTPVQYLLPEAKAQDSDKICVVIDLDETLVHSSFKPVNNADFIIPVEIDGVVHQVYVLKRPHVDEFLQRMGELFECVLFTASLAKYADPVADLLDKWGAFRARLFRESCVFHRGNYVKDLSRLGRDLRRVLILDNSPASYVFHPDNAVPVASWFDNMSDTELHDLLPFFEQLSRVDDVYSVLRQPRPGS

Tumor necrosis factor = Tumor necrosis factor (Homo sapiens, UniProt P01375); test: TNFa-triggered NF-kB activation inhibitors, SAR follow-up, cell-based, revised (AID 2337); type: functional
Tumor necrosis factor, sequence (P01375 whole entry): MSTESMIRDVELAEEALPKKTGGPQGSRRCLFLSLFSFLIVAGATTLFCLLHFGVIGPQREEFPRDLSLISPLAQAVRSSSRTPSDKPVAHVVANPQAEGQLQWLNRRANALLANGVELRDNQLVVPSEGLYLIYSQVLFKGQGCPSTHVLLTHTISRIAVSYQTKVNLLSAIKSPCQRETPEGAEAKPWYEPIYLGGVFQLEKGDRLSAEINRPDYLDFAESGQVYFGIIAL

[5] = target: T4, DNA repair and recombination protein RAD54-like (Homo sapiens, UniProt Q92698); test: inhibitors of human RAD54 branch migration, confirmation, biochemical, fluorescence, cherry-picked samples, dose series (AID 651657); type: functional
T4 sequence (Q92698 whole entry): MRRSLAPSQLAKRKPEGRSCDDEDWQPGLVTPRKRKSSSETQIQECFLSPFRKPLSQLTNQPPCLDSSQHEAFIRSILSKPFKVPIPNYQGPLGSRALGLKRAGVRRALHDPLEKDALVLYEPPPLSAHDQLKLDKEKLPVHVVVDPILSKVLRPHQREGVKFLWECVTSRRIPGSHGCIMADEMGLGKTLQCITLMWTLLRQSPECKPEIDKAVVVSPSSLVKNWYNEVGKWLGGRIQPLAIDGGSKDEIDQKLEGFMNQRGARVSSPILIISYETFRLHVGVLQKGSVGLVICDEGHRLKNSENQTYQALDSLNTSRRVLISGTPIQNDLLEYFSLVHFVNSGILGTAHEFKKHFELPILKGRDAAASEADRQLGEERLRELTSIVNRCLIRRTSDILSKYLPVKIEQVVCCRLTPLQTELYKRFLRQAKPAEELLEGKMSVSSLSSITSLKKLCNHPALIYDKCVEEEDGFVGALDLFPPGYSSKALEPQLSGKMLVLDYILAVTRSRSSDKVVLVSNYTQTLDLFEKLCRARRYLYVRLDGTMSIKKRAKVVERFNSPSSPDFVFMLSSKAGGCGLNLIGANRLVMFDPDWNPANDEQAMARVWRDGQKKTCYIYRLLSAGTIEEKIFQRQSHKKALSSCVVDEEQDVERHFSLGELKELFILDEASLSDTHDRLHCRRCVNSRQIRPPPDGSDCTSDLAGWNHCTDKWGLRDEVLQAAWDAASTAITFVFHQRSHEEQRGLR

[6] = target: T5, Ubiquitin-conjugating enzyme E2 N (Homo sapiens, UniProt P61088); type: functional
T5 sequence (P61088 whole entry): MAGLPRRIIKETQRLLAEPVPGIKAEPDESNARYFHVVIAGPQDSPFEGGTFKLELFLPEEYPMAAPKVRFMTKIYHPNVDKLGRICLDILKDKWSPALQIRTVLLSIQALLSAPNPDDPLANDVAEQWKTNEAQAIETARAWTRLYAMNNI

[7] = target: T5, Ubiquitin-conjugating enzyme E2 N; type: functional; remark: listed apart in the source
Bcl-2-related protein A1 = target: T6, Bcl-2-related protein A1 (Mus musculus, UniProt Q07440); type: functional;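 note: confirmatory dose–response counterscreen on Bfl-1, used to check hits from a UBC13 polyubiquitin inhibitor campaign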
T6 sequence (Q07440 whole entry): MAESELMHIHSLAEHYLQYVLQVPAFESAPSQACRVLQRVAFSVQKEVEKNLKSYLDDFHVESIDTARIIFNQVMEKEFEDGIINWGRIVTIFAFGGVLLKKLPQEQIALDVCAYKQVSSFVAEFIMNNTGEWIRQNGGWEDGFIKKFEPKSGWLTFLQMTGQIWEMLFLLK

[8] = miR-122 activators in hepatoma reporter cells, dose response, cell-based, Huh7 psiCHECK-miR122, Renilla luciferase, cherry-picked (AID 651956); type: functional;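 note: huh7 hepatoma cells stably carrying a psiCHECK-2 miR-122 sensor plasmid; renilla luciferase signal reporting endogenous miR-122 activity after 48 h compound exposure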
[9] = target: FAD-linked sulfhydryl oxidase ALR (Homo sapiens, UniProt P55789); test: inhibitors of human ALR sulfhydryl oxidase, dose response, biochemical, H2O2 detection, luminescence, cherry-pick (AID 493248)
FAD-linked sulfhydryl oxidase ALR, sequence (P55789 whole entry): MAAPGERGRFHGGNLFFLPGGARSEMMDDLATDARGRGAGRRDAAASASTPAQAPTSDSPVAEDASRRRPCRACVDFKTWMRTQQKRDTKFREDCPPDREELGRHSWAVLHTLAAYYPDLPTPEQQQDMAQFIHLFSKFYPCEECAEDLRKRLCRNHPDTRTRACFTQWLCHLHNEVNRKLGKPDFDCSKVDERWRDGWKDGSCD

Protein RecA = target: T7, Protein RecA (Mycobacterium tuberculosis, UniProt P9WHJ3); test: Fluorescence Cell-Free Homogeneous Dose Retest to Identify Inhibitors of RecA-Intein Splicing Activity. [Related pubchem assays (depositor defined):AID2097, AID2223, AID489010, AID492950]; type: functional
T7 sequence (P9WHJ3 whole entry): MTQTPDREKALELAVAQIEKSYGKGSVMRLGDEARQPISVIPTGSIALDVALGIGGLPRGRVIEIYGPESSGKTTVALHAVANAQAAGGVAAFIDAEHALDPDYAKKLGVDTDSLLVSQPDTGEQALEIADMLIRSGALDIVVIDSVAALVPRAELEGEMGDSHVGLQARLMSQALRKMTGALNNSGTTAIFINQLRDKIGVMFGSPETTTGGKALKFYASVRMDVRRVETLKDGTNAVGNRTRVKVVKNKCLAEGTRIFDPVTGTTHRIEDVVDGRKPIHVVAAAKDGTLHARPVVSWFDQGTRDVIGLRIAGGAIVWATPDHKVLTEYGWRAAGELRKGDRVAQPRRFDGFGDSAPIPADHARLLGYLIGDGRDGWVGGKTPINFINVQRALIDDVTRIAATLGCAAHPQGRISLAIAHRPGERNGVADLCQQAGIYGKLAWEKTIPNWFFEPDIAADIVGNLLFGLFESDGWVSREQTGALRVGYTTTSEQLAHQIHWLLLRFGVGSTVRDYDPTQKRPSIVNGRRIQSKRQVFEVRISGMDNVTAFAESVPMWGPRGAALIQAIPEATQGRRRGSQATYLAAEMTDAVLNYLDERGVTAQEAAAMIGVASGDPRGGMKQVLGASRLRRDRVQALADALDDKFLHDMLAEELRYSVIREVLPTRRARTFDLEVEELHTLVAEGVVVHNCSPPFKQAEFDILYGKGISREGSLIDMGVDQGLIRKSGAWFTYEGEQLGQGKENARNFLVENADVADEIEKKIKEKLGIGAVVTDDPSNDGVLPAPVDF

[10] = target: T8, Replicative DNA helicase DnaB (Mycobacterium tuberculosis, UniProt P9WMR3); test: DnaB intein splicing inhibitors, dose response, biochemical, cell-free fluorescence (AID 449749); type: functional
T8 sequence (P9WMR3 whole entry): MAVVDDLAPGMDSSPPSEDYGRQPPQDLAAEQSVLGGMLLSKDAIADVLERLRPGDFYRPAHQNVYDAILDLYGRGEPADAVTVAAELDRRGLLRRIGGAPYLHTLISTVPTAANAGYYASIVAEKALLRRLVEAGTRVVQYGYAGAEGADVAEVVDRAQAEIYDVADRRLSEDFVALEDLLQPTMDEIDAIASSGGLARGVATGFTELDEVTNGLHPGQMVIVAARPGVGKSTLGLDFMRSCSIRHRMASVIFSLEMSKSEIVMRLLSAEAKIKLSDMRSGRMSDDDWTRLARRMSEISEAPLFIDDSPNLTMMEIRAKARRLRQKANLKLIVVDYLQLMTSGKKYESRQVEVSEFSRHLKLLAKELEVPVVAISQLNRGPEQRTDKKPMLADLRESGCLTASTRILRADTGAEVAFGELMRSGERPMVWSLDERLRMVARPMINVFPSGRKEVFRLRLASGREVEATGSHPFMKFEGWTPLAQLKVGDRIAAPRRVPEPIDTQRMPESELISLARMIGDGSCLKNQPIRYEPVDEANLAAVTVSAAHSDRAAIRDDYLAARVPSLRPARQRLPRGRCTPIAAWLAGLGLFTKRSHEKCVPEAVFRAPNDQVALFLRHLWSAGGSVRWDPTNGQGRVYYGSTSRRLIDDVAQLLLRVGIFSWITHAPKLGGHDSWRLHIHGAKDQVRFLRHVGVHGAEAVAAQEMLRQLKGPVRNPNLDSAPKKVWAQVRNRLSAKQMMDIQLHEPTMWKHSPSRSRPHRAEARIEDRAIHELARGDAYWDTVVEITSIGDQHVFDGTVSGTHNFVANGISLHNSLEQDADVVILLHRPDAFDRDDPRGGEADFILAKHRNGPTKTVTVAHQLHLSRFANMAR

HEK293 [11] = test: inhibitors of LMP1-driven NF-kB reporter, dose response, cell-based, HEK293, luciferase, cherry-pick (AID 588343); type: functional; details: Homo sapiens
Cytochrome P450 1A2 = target: T9, Cytochrome P450 1A2 (Homo sapiens, UniProt P05177);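 note: PubChem cytochrome P450 panel assay, CYP1A2 panel member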
T9 sequence (P05177 whole entry): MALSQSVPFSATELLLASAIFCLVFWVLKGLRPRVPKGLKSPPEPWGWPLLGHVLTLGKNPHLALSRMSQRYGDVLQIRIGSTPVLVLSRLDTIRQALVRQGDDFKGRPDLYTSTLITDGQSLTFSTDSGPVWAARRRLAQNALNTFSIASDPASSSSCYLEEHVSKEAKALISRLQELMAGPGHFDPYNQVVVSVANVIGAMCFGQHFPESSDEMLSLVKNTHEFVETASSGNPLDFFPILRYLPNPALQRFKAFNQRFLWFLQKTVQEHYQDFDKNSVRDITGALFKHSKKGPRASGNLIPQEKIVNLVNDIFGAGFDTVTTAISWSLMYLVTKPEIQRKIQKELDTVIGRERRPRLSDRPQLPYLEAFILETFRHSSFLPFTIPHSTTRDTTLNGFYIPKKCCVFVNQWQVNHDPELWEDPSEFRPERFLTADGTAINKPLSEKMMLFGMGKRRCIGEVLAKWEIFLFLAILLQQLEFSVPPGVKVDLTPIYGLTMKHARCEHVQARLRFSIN

Cytochrome P450 2D6, sequence (P10635 whole entry): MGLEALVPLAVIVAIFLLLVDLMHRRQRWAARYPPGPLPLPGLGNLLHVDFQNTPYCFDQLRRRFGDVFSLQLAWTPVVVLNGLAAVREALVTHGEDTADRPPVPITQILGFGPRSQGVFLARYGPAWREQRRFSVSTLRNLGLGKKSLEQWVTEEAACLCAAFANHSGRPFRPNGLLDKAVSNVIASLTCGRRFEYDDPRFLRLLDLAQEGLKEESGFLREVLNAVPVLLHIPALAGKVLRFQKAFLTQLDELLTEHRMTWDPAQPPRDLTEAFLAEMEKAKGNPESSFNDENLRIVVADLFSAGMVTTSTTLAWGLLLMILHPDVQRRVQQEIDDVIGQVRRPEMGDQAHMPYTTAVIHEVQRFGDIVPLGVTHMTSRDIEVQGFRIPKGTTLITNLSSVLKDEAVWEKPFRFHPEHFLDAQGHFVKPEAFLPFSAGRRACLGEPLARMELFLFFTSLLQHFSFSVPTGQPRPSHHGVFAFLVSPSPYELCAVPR
Cytochrome P450 2C9, sequence (P11712 whole entry): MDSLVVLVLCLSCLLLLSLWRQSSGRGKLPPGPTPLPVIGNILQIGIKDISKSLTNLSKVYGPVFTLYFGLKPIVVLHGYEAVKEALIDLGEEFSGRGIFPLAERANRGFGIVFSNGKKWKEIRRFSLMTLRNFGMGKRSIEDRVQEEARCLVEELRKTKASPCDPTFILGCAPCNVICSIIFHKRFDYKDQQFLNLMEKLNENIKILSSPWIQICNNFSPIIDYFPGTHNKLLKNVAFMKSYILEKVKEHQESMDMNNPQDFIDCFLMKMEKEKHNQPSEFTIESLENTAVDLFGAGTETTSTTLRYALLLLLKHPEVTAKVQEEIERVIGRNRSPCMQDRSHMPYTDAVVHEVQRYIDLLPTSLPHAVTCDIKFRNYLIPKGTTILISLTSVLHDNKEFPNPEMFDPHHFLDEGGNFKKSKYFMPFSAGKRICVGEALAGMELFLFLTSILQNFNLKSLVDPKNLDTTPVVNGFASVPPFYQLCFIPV

CC(C)(C)c1ccc(C(=O)O/N=C(\N)c2cccc([N+](=O)[O-])c2)cc1
IC50 (HEK293 [1]): > 20 µM (inactive)

CC(=O)c1c(C(C)=O)c(C)n(NC(=O)c2ccccc2Cl)c1C
AC50 (Cytochrome P450 2C9): inconclusive
AC50 (Cytochrome P450 2D6): inconclusive

CC(=O)N(\C=C/C=C/C=C1\Sc2ccccc2C1=O)c1ccccc1
IC50 (Protein Tat): > 100 µM (active)
AC50 (A-375): 50.7 µM (active)
CC50 [2]: > 40 µM (active)
AC50 [3]: 8 µM (active)

COc1cc(NC(=O)c2ccc3c(c2)C(=O)N(CCC(C)C)C3=O)c(C(=O)O)cc1OC
IC50 [4]: 7.04 µM (active)

CN(C)c1ccc(NC(=O)c2ccc(CN3CCCCC3)cc2)cc1
IC50 (Tumor necrosis factor): > 20 µM (inactive)
IC50 (HEK293 [1]): > 20 µM (inactive)

C=CCc1ccccc1OCC(O)CN1CCN(CCN2C(=O)c3cccc4cccc(c34)C2=O)CC1 (configuration not stated)
AC50 [5]: 9.3 µM (active)
IC50 [6]: 17.2 µM (active)
IC50 [7]: 17.7 µM (active)
IC50 (Bcl-2-related protein A1): > 20 µM (inactive)
AC50 [8]: 8.26 µM (active)

Cc1cc(Sc2nnc(/N=C/N(C)C)s2)c2ccccc2n1
IC50 [6]: 8.88 µM (active)
AC50 [9]: 0.801 µM (active)
IC50 [7]: 11 µM (active)
EC50 (Protein RecA): 10.3 µM (active)
AC50 [10]: 39.8 µM (active)
IC50 (Bcl-2-related protein A1): > 20 µM (inactive)
AC50 (HEK293 [11]): 2.9 µM (active)

CCOC(=S)SCC(=O)O
AC50 (Cytochrome P450 2D6): inconclusive

COc1ccc(OC)c2nc(O)c(CCNS(=O)(=O)c3ccc(C)cc3)cc12
AC50 (Cytochrome P450 1A2): 12.6 µM (inconclusive)
AC50 (Cytochrome P450 2D6): inconclusive

Cc1cc(C)cc(NS(=O)(=O)c2ccc3c(c2)c(=O)n(C)c(=O)n3C)c1
AC50 (A-375): 17.3 µM (active)
AC50 [3]: 4.67 µM (active)
